Measurements: the supplement of paper PMC10307832

Assays:
Test in all cases: relative viability (nuclei count vs DMSO), 5 days (fraction); higher = more cells survive
[1] = compound: CCN1CCC(CC1)N2C=C(N=N2)CNC3=CC4=C(C(=CN=C4C(=C3)Cl)C#N)NC5=CC(=C(C=C5)F)Cl [KIN001-266] + Cc1nc(Nc2ncc(C(=O)Nc3c(C)cccc3Cl)s2)cc(N2CCN(CCO)CC2)n1 [Dasatinib] (partner 0.075 µM)
Method in brief: (§1)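 A single step with final 0.05% Triton X-100, 1% formaldehyde and 1 ug/ml Hoechst fixed the cells and stained nuclei 5 days after treatment. Lung cancer cell lines in 1536-well plates had been treated by pin tool the day after seeding with one drug alone or a fixed anchor-drug dose plus five library-drug doses (not always all listed) in √10 steps, and nuclei were counted on 4× images. Relative viability is the ratio of nuclei in treated wells to nuclei in vehicle wells, taken as the median of duplicate plates.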

[2] = compound: CCN1CCC(CC1)N2C=C(N=N2)CNC3=CC4=C(C(=CN=C4C(=C3)Cl)C#N)NC5=CC(=C(C=C5)F)Cl [KIN001-266] + CC(=O)c1c(C)c2cnc(Nc3ccc(N4CCNCC4)cn3)nc2n(C2CCCC2)c1=O [Palbociclib] (partner 0.5 µM)
Method in brief: as §1

[3] = compound: CCN1CCC(CC1)N2C=C(N=N2)CNC3=CC4=C(C(=CN=C4C(=C3)Cl)C#N)NC5=CC(=C(C=C5)F)Cl [KIN001-266] + O=C(CCCCCCC(=O)Nc1ccccc1)NO [Vorinostat] (partner 1 µM)
Method in brief: as §1

[4] = compound: CCN1CCC(CC1)N2C=C(N=N2)CNC3=CC4=C(C(=CN=C4C(=C3)Cl)C#N)NC5=CC(=C(C=C5)F)Cl [KIN001-266] + Nc1nc2[nH]cc(CCc3ccc(C(=O)N[C@@H](CCC(=O)O)C(=O)O)cc3)c2c(=O)[nH]1 [Pemetrexed] (partner 0.2 µM)
Method in brief: as §1

Cell Line: NCI-H838
- relative viability ([1]; first compound 0.08 µM): 0.275
- relative viability ([1]; first compound 0.253 µM): 0.267
- relative viability ([1]; first compound 0.8 µM): 0.338
- relative viability ([1]; first compound 2.53 µM): 0.26
- relative viability ([1]; first compound 8 µM): 0.282
- relative viability ([2]; first compound 0.08 µM): 0.228
- relative viability ([2]; first compound 0.253 µM): 0.207
- relative viability ([2]; first compound 0.8 µM): 0.212
- relative viability ([2]; first compound 2.53 µM): 0.164
- relative viability ([2]; first compound 8 µM): 0.22
- relative viability ([3]; first compound 0.08 µM): 0.714
- relative viability ([3]; first compound 0.253 µM): 0.775
- relative viability ([3]; first compound 0.8 µM): 0.697
- relative viability ([3]; first compound 2.53 µM): 0.626
- relative viability ([3]; first compound 8 µM): 0.515
- relative viability ([4]; first compound 0.08 µM): 0.242
- relative viability ([4]; first compound 0.253 µM): 0.249
- relative viability ([4]; first compound 0.8 µM): 0.26
- relative viability ([4]; first compound 2.53 µM): 0.249
- relative viability ([4]; first compound 8 µM): 0.236

Cell Line: NCI-H1355
- relative viability ([1]; first compound 0.08 µM): 0.734
- relative viability ([1]; first compound 0.253 µM): 0.7
- relative viability ([1]; first compound 0.8 µM): 0.663
- relative viability ([1]; first compound 2.53 µM): 0.691
- relative viability ([1]; first compound 8 µM): 0.662
- relative viability ([2]; first compound 0.08 µM): 0.41
- relative viability ([2]; first compound 0.253 µM): 0.381
- relative viability ([2]; first compound 0.8 µM): 0.438
- relative viability ([2]; first compound 2.53 µM): 0.415
- relative viability ([2]; first compound 8 µM): 0.387
- relative viability ([3]; first compound 0.08 µM): 0.615
- relative viability ([3]; first compound 0.253 µM): 0.65
- relative viability ([3]; first compound 0.8 µM): 0.636
- relative viability ([3]; first compound 2.53 µM): 0.631
- relative viability ([3]; first compound 8 µM): 0.62
- relative viability ([4]; first compound 0.08 µM): 0.987
- relative viability ([4]; first compound 0.253 µM): 0.995
- relative viability ([4]; first compound 0.8 µM): 1.1
- relative viability ([4]; first compound 2.53 µM): 1
- relative viability ([4]; first compound 8 µM): 1.01

Cell Line: NCI-H1395
- relative viability ([1]; first compound 0.08 µM): 0.413
- relative viability ([1]; first compound 0.253 µM): 0.388
- relative viability ([1]; first compound 0.8 µM): 0.43
- relative viability ([1]; first compound 2.53 µM): 0.418
- relative viability ([1]; first compound 8 µM): 0.429
- relative viability ([2]; first compound 0.08 µM): 0.671
- relative viability ([2]; first compound 0.253 µM): 0.614
- relative viability ([2]; first compound 0.8 µM): 0.648
- relative viability ([2]; first compound 2.53 µM): 0.602
- relative viability ([2]; first compound 8 µM): 0.616
- relative viability ([3]; first compound 0.08 µM): 0.679
- relative viability ([3]; first compound 0.253 µM): 0.768
- relative viability ([3]; first compound 0.8 µM): 0.828
- relative viability ([3]; first compound 2.53 µM): 0.654
- relative viability ([3]; first compound 8 µM): 0.709
- relative viability ([4]; first compound 0.08 µM): 0.871
- relative viability ([4]; first compound 0.253 µM): 1.02
- relative viability ([4]; first compound 0.8 µM): 0.964
- relative viability ([4]; first compound 2.53 µM): 0.784
- relative viability ([4]; first compound 8 µM): 0.847

Cell Line: NCI-H1437
- relative viability ([1]; first compound 0.08 µM): 0.413
- relative viability ([1]; first compound 0.253 µM): 0.421
- relative viability ([1]; first compound 0.8 µM): 0.346
- relative viability ([1]; first compound 2.53 µM): 0.369
- relative viability ([1]; first compound 8 µM): 0.249
- relative viability ([2]; first compound 0.08 µM): 0.34
- relative viability ([2]; first compound 0.253 µM): 0.33
- relative viability ([2]; first compound 0.8 µM): 0.296
- relative viability ([2]; first compound 2.53 µM): 0.325
- relative viability ([2]; first compound 8 µM): 0.278
- relative viability ([3]; first compound 0.08 µM): 0.931
- relative viability ([3]; first compound 0.253 µM): 0.841
- relative viability ([3]; first compound 0.8 µM): 0.797
- relative viability ([3]; first compound 2.53 µM): 0.841
- relative viability ([3]; first compound 8 µM): 0.572
- relative viability ([4]; first compound 0.08 µM): 0.32
- relative viability ([4]; first compound 0.253 µM): 0.329
- relative viability ([4]; first compound 0.8 µM): 0.329
- relative viability ([4]; first compound 2.53 µM): 0.3
- relative viability ([4]; first compound 8 µM): 0.241

Cell Line: NCI-H1650
- relative viability ([1]; first compound 0.08 µM): 0.313
- relative viability ([1]; first compound 0.253 µM): 0.356
- relative viability ([1]; first compound 0.8 µM): 0.238
- relative viability ([1]; first compound 2.53 µM): 0.288
- relative viability ([1]; first compound 8 µM): 0.224
- relative viability ([2]; first compound 0.08 µM): 0.407
- relative viability ([2]; first compound 0.253 µM): 0.362
- relative viability ([2]; first compound 0.8 µM): 0.377
- relative viability ([2]; first compound 2.53 µM): 0.267
- relative viability ([2]; first compound 8 µM): 0.196
- relative viability ([3]; first compound 0.08 µM): 0.566
- relative viability ([3]; first compound 0.253 µM): 0.622
- relative viability ([3]; first compound 0.8 µM): 0.668
- relative viability ([3]; first compound 2.53 µM): 0.488
- relative viability ([3]; first compound 8 µM): 0.337
- relative viability ([4]; first compound 0.08 µM): 0.371
- relative viability ([4]; first compound 0.253 µM): 0.409
- relative viability ([4]; first compound 0.8 µM): 0.412
- relative viability ([4]; first compound 2.53 µM): 0.338
- relative viability ([4]; first compound 8 µM): 0.36

Cell Line: NCI-H1651
- relative viability ([1]; first compound 0.08 µM): 0.43
- relative viability ([1]; first compound 0.253 µM): 0.421
- relative viability ([1]; first compound 0.8 µM): 0.388
- relative viability ([1]; first compound 2.53 µM): 0.472
- relative viability ([1]; first compound 8 µM): 0.411
- relative viability ([2]; first compound 0.08 µM): 0.528
- relative viability ([2]; first compound 0.253 µM): 0.518
- relative viability ([2]; first compound 0.8 µM): 0.525
- relative viability ([2]; first compound 2.53 µM): 0.533
- relative viability ([2]; first compound 8 µM): 0.531
- relative viability ([3]; first compound 0.08 µM): 0.568
- relative viability ([3]; first compound 0.253 µM): 0.564
- relative viability ([3]; first compound 0.8 µM): 0.533
- relative viability ([3]; first compound 2.53 µM): 0.681
- relative viability ([3]; first compound 8 µM): 0.577
- relative viability ([4]; first compound 0.08 µM): 0.6
- relative viability ([4]; first compound 0.253 µM): 0.535
- relative viability ([4]; first compound 0.8 µM): 0.531
- relative viability ([4]; first compound 2.53 µM): 0.514
- relative viability ([4]; first compound 8 µM): 0.58

Cell Line: NCI-H1666
- relative viability ([1]; first compound 0.08 µM): 0.798
- relative viability ([1]; first compound 0.253 µM): 0.811
- relative viability ([1]; first compound 0.8 µM): 0.784
- relative viability ([1]; first compound 2.53 µM): 0.833
- relative viability ([1]; first compound 8 µM): 0.804
- relative viability ([2]; first compound 0.08 µM): 0.61
- relative viability ([2]; first compound 0.253 µM): 0.668
- relative viability ([2]; first compound 0.8 µM): 0.601
- relative viability ([2]; first compound 2.53 µM): 0.664
- relative viability ([2]; first compound 8 µM): 0.655
- relative viability ([3]; first compound 0.08 µM): 1.04
- relative viability ([3]; first compound 0.253 µM): 1.06
- relative viability ([3]; first compound 0.8 µM): 1.01
- relative viability ([3]; first compound 2.53 µM): 1.03
- relative viability ([3]; first compound 8 µM): 1
- relative viability ([4]; first compound 0.08 µM): 0.861
- relative viability ([4]; first compound 0.253 µM): 0.857
- relative viability ([4]; first compound 0.8 µM): 0.881
- relative viability ([4]; first compound 2.53 µM): 0.773
- relative viability ([4]; first compound 8 µM): 0.856

Cell Line: NCI-H1734
- relative viability ([1]; first compound 0.08 µM): 0.474
- relative viability ([1]; first compound 0.253 µM): 0.466
- relative viability ([1]; first compound 0.8 µM): 0.43
- relative viability ([1]; first compound 2.53 µM): 0.419
- relative viability ([1]; first compound 8 µM): 0.401
- relative viability ([2]; first compound 0.08 µM): 0.342
- relative viability ([2]; first compound 0.253 µM): 0.539
- relative viability ([2]; first compound 0.8 µM): 0.345
- relative viability ([2]; first compound 2.53 µM): 0.321
- relative viability ([2]; first compound 8 µM): 0.294
- relative viability ([3]; first compound 0.08 µM): 0.849
- relative viability ([3]; first compound 0.253 µM): 0.85
- relative viability ([3]; first compound 0.8 µM): 0.743
- relative viability ([3]; first compound 2.53 µM): 0.796
- relative viability ([3]; first compound 8 µM): 0.599
- relative viability ([4]; first compound 0.08 µM): 0.425
- relative viability ([4]; first compound 0.253 µM): 0.426
- relative viability ([4]; first compound 0.8 µM): 0.435
- relative viability ([4]; first compound 2.53 µM): 0.388
- relative viability ([4]; first compound 8 µM): 0.417
